The values that follow come from ChEMBL document CHEMBL5131534, “Identification of 2-Pyridinylindole-Based Dual Antagonists of Toll-like Receptors 7 and 8 (TLR7/8)” (ACS Med Chem Lett, 2022).

For orientation: IC50 means the midpoint of a concentration-inhibition curve.

For one data set, the target named is T1, Toll-like receptor 3 (Homo sapiens, UniProt O15455).
T1 sequence (O15455 whole entry): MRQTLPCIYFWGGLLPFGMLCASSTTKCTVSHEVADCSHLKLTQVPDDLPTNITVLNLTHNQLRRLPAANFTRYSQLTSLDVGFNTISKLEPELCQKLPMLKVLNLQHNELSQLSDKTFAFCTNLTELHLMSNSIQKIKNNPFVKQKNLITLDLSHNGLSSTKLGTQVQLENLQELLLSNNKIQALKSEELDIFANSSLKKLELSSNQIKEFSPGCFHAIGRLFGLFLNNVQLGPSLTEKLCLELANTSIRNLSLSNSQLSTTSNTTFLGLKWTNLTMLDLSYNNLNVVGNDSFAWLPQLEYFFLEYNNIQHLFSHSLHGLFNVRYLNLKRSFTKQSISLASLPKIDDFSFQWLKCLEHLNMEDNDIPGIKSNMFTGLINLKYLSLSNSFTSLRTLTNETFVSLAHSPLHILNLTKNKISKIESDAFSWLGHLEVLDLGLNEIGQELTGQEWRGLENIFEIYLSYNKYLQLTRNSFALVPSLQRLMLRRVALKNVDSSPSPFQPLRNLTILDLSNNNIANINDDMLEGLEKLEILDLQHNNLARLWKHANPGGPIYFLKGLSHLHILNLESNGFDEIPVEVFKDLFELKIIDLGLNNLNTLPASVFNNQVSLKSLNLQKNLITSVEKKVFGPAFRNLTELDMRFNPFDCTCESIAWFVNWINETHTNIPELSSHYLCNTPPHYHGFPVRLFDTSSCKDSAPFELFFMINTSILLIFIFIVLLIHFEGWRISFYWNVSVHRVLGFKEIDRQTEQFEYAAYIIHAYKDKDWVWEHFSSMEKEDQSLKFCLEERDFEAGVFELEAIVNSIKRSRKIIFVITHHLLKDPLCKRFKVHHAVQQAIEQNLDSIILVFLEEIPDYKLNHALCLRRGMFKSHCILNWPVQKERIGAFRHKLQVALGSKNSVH
Kind of data set: Antagonist activity at […] stimulated human TRL3 overexpressed in HEK293 cells assessed as inhibition of NF kappa B/Ap-1 activation preincubated with compound for 30 mins followed by […] stimulation measured after 22 hrs by SEAP reporter assay. It counts as cell-based. Background: A reporter such as luciferase makes a cellular process visible.

The target of a further data set is T2, Toll-like receptor 7 (Homo sapiens, UniProt Q9NYK1).
T2 sequence (Q9NYK1 whole entry): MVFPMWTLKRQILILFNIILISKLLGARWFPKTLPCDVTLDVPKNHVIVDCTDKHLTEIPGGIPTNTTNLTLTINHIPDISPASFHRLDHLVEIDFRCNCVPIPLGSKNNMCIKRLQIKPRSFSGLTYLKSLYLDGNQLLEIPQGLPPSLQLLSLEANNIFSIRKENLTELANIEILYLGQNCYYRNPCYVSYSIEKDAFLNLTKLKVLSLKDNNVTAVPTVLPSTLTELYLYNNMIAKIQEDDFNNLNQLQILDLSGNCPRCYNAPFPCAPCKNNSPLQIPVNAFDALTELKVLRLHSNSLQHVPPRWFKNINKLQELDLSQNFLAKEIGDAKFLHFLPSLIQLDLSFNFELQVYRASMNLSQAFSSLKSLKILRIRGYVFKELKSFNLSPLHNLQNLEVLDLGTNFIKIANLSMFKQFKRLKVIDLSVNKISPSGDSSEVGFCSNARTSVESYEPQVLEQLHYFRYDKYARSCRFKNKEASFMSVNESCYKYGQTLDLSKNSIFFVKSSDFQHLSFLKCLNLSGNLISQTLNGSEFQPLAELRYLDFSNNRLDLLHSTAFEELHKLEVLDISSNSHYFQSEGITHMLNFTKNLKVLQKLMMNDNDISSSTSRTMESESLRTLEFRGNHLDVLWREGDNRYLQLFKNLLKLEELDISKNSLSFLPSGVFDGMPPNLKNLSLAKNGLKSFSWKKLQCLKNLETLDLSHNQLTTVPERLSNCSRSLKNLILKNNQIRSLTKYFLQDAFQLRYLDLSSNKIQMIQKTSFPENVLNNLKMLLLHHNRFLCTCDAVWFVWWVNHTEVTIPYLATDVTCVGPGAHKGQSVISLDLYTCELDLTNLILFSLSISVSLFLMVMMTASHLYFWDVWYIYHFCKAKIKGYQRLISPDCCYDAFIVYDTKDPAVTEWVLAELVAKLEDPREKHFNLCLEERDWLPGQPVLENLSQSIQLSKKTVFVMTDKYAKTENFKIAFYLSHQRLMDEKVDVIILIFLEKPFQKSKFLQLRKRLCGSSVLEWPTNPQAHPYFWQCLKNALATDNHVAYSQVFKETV
Briefly: Antagonist activity at gardiquimod stimulated TRL7 in human PBMC cells assessed as inhibition of IL-6 production by ELISA analysis. It counts as cell-based.

For another data set, the system named is Mus musculus. Briefly: Anti-inflammatory activity against MRL/Ipr Systemic lupus erythematosus mouse model assessed as inhibition of urinary NGAL at 20 mg/kg, po administered for 8 weeks and measured 24 hrs post final dose relative to control. It counts as functional. The arrangement: scale not given: the % may be the effect or the level left. As to conditions: time 1368 hrs.

A short description of data set [1]: Toxicity in MRL/Ipr Systemic lupus erythematosus mouse model assessed as relative spleen weight at 5 mg/kg, po administered for 8 weeks and measured 24 hrs post final dose relative to control. It is filed as organism-based. As to conditions: in vivo, 1368 h.

Consider `Cc1cc(-c2[nH]c3ccc(C4CCNCC4)cc3c2C(C)C)cc(C)n1`, for which the IC50 on Toll-like receptor 3 was more than 10000 nM; on Toll-like receptor 7 it was 1 nM. In addition, the values for the Activity (in the data set on Mus musculus; in data set [1]) were 81% and 49%, respectively.
